The test system of one assay is B16. Nature of the assay: Ratio of ED50 of compound for B16 melanoma cytotoxicity to that of ED50 of paclitaxel; Relative paclitaxel ED50 = 1.0. Format: functional, Mus musculus.
A further assay addresses Tubulin (Bos taurus) (UniProt Q6B856+Q862L2+Q862F3). Nature of the assay: Ratio of ED50 for microtubule polymerization to ED50 for paclitaxel; Relative paclitaxel ED50 = 1.0. Format: functional.
In the next assay the test system is P388. Nature of the assay: Compound was tested for in vitro cytotoxicity against P388 cells. Format: functional, Mus musculus.

Structures are written as SMILES.

Consider `COc1ccc(C(=O)O[C@H]2[C@H]3[C@](C)(C(=O)[C@H](OC(C)=O)C4=C(C)[C@@H](OC(=O)[C@H](O)[C@@H](NC(=O)c5ccccc5)c5ccccc5)C[C@]2(O)C4(C)C)[C@@H](O)CC2OC[C@]23OC(C)=O)cc1` (some centres not stated), for which the results for the Ratio in the assay with B16 and at Tubulin (Bos taurus) were 22 and 6, respectively.
For `CC(=O)O[C@H]1C(=O)[C@]2(C)[C@@H](O)CC3OC[C@@]3(OC(C)=O)[C@H]2[C@H](OC(=O)c2ccccc2C)[C@]2(O)C[C@H](OC(=O)[C@H](O)[C@@H](NC(=O)c3ccccc3)c3ccccc3)C(C)=C1C2(C)C` (some centres not stated), the values for the Ratio in the assay on B16 and at Tubulin (Bos taurus) were 0.84 and 1.1, respectively.
Regarding `CC(=O)O[C@H]1C(=O)[C@]2(C)[C@@H](O)CC3OC[C@@]3(OC(C)=O)[C@H]2[C@H](OC(=O)c2cccc(Cl)c2)[C@]2(O)C[C@H](OC(=O)[C@H](O)[C@@H](NC(=O)c3ccccc3)c3ccccc3)C(C)=C1C2(C)C` (some centres not stated), the Activity in the assay with P388 is listed as 0.81. Besides, the Ratio in the assay on B16 was determined as 0.57; on Tubulin (Bos taurus), 1.1.
Consider `CC(=O)O[C@H]1C(=O)[C@]2(C)[C@@H](O)CC3OC[C@@]3(OC(C)=O)[C@H]2[C@H](OC(=O)c2cccc(C)c2)[C@]2(O)C[C@H](OC(=O)[C@H](O)[C@@H](NC(=O)c3ccccc3)c3ccccc3)C(C)=C1C2(C)C` (some centres not stated), for which the Ratio in the assay with B16 came out at 1.6; on Tubulin (Bos taurus), 1.7.
In the case of `CC(=O)O[C@H]1C(=O)[C@]2(C)[C@@H](O)CC3OC[C@@]3(OC(C)=O)[C@H]2[C@H](OC(=O)c2cc(Cl)cc(Cl)c2)[C@]2(O)C[C@H](OC(=O)[C@H](O)[C@@H](NC(=O)c3ccccc3)c3ccccc3)C(C)=C1C2(C)C` (some centres not stated), the results for the Ratio with B16 and at Tubulin (Bos taurus) were 1.8 and 0.98, respectively.
The like results for `CC(=O)O[C@H]1C(=O)[C@]2(C)[C@@H](O)CC3OC[C@@]3(OC(C)=O)[C@H]2[C@H](OC(=O)c2cccc([N+](=O)[O-])c2)[C@]2(O)C[C@H](OC(=O)[C@H](O)[C@@H](NC(=O)c3ccccc3)c3ccccc3)C(C)=C1C2(C)C` (some centres not stated) were, in that order, 0.73 and 1.3.
Take `CC(=O)O[C@H]1C(=O)[C@]2(C)[C@@H](O)CC3OC[C@@]3(OC(C)=O)[C@H]2[C@H](OC(=O)c2ccc(C)cc2)[C@]2(O)C[C@H](OC(=O)[C@H](O)[C@@H](NC(=O)c3ccccc3)c3ccccc3)C(C)=C1C2(C)C` (some centres not stated): the Ratio in the assay on B16 turned out to be 5.1; at Tubulin (Bos taurus), 1.6.
For `CC(=O)O[C@H]1C(=O)[C@]2(C)[C@@H](O)CC3OC[C@@]3(OC(C)=O)[C@H]2[C@H](OC(=O)c2ccc(Cl)c(Cl)c2)[C@]2(O)C[C@H](OC(=O)[C@H](O)[C@@H](NC(=O)c3ccccc3)c3ccccc3)C(C)=C1C2(C)C` (some centres not stated), the values for the Ratio with B16 and at Tubulin (Bos taurus) were 2.7 and 0.45, respectively.
Taken in the same sequence, the figures for `CC(=O)O[C@H]1C(=O)[C@]2(C)[C@@H](O)CC3OC[C@@]3(OC(C)=O)[C@H]2[C@H](OC(=O)c2ccc(Cl)cc2)[C@]2(O)C[C@H](OC(=O)[C@H](O)[C@@H](NC(=O)c3ccccc3)c3ccccc3)C(C)=C1C2(C)C` (some centres not stated) were 3.1 and 0.79.
In turn, `CC(=O)O[C@H]1C(=O)[C@@]2(C)[C@H]([C@H](OC(=O)c3ccccc3)[C@]3(O)C[C@H](OC(=O)[C@H](O)[C@@H](NC(=O)c4ccccc4)c4ccccc4)C(C)=C1C3(C)C)[C@]1(OC(C)=O)CO[C@@H]1C[C@@H]2O` [PACLITAXEL] had an Activity in the assay with P388 of 1. Also, the Ratio with B16 and on Tubulin (Bos taurus) was 1 each time.
As to `CC(=O)O[C@H]1C(=O)[C@]2(C)[C@@H](O)CC3OC[C@@]3(OC(C)=O)[C@H]2[C@H](OC(=O)c2ccc([N+](=O)[O-])cc2)[C@]2(O)C[C@H](OC(=O)[C@H](O)[C@@H](NC(=O)c3ccccc3)c3ccccc3)C(C)=C1C2(C)C` (some centres not stated), the Ratio at Tubulin (Bos taurus) was over 8.8.
Turning to `CC(=O)O[C@H]1C(=O)[C@]2(C)[C@@H](O)CC3OC[C@@]3(OC(C)=O)[C@H]2[C@H](OC(=O)c2cccc(C(F)(F)F)c2)[C@]2(O)C[C@H](OC(=O)[C@H](O)[C@@H](NC(=O)c3ccccc3)c3ccccc3)C(C)=C1C2(C)C` (some centres not stated), the Ratio amounted to 2.7 with B16 and 0.64 at Tubulin (Bos taurus).
The like results for `CC(=O)O[C@H]1C(=O)[C@]2(C)[C@@H](O)CC3OC[C@@]3(OC(C)=O)[C@H]2[C@H](OC(=O)c2ccc(F)cc2)[C@]2(O)C[C@H](OC(=O)[C@H](O)[C@@H](NC(=O)c3ccccc3)c3ccccc3)C(C)=C1C2(C)C` (some centres not stated) were, in that order, over 36 and 3.2.

The record behind these values is ChEMBL document CHEMBL1128118, “Synthesis of biologically active 2-benzoyl paclitaxel analogues” (1995).
